Target: BRAF^V600E protein (Homo sapiens, UniProt P15056, V600E)
Experiment: HiBiT cellular BRAF V600E degradation assay
Format: cell-based
Details: 24 h incubation; for DC50: A375.10 cells (HiBiT tag knocked in at N-terminal of BRAF V600E), concentration at which 50% of total cellular BRAF V600E is degraded; for Emax: A375.10 cells, Emax = amount of residual protein remaining in the cell after compound treatment, read-out: HiBit 24 h Emax

Sequence of BRAF^V600E protein (P15056 whole entry V600E): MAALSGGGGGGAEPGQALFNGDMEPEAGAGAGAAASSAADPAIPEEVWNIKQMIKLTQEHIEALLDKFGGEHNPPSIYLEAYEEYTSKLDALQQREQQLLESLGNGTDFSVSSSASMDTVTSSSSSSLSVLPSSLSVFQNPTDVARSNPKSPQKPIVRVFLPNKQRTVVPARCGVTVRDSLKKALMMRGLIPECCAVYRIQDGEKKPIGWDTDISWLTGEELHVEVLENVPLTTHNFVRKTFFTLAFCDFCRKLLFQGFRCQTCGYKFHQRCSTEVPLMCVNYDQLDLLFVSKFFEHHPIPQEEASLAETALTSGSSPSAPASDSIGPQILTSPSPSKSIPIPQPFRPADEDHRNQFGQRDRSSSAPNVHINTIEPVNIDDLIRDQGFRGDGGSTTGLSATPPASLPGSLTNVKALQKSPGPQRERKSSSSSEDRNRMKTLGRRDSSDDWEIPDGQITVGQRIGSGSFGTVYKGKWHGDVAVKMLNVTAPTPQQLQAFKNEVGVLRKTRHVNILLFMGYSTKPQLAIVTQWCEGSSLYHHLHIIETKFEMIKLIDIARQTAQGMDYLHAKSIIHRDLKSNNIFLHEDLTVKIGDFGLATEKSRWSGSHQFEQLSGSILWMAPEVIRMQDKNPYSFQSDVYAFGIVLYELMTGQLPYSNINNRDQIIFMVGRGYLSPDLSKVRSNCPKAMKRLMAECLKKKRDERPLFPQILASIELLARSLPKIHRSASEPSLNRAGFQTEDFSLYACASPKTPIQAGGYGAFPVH

SMILES | DC50 | Emax
CCN(C)S(=O)(=O)Nc1cccc(C(=O)c2c[nH]c3ncc(-c4ccc(N5CCN(C(=O)CC6(O)CCN(c7ccc(NC8CCC(=O)NC8=O)cn7)CC6)CC5)nc4)cc23)c1F (stereo not drawn) [Example 113, 5-[6-[4-[2-[1-[5-[(2,6-dioxo-3-piperidyl)amino]-2-pyridyl]-4-hydroxy-4-piperidyl]acetyl]piperazin-1-yl]-3-pyridyl]-3-[3-[[ethyl(methyl)sulfamoyl]amino]-2-fluoro-benzoyl]-1H-pyrrolo[2,3-b]pyridine] | 26.3 nM | 27.7%
CCN(C)S(=O)(=O)Nc1cccc(C(=O)c2c[nH]c3ncc(-c4ccc(N5CCN(C(=O)CC6(O)CCN(c7ccc(NC8CCC(=O)NC8=O)cn7)CC6)CC5)cc4)cc23)c1F (stereo not drawn) [Example 117, 5-[4-[4-[2-[1-[5-[(2,6-dioxo-3-piperidyl)amino]-2-pyridyl]-4-hydroxy-4-piperidyl]acetyl]piperazin-1-yl]phenyl]-3-[3-[[ethyl(methyl)sulfamoyl]amino]-2-fluoro-benzoyl]-1H-pyrrolo[2,3-b]pyridine] | 23.1 nM | 25.3%
CCN(C)S(=O)(=O)Nc1cccc(C(=O)c2c[nH]c3ncc(-c4ccc(N5CCN(C(=O)CC6(O)CCN(c7ccc(NC8CCC(=O)NC8=O)cc7F)C6)CC5)cc4)cc23)c1F (stereo not drawn) [Example 118, 5-[4-[4-[2-[1-[4-[(2,6-dioxo-3-piperidyl)amino]-2-fluoro-phenyl]-3-hydroxy-pyrrolidin-3-yl]acetyl]piperazin-1-yl]phenyl]-3-[3-[[ethyl(methyl)sulfamoyl]amino]-2-fluoro-benzoyl]-1H-pyrrolo[2,3-b]pyridine] | 27.2 nM | 13.4%
CCN(C)S(=O)(=O)Nc1ccc(F)c(C(=O)c2c[nH]c3ncc(-c4cnc(N5CCN(C(=O)CN6CCC(c7ccc(NC8CCC(=O)NC8=O)cc7)CC6)CC5)nc4)cc23)c1C (stereo not drawn) [Example 123, 5-[2-[4-[2-[4-[4-[(2,6-dioxo-3-piperidyl)amino]phenyl]-1-piperidyl]acetyl]piperazin-1-yl]pyrimidin-5-yl]-3-[3-[[ethyl(methyl)sulfamoyl]amino]-6-fluoro-2-methyl-benzoyl]-1H-pyrrolo[2,3-b]pyridine] | 46.4 nM | 11.7%
CCN(C)S(=O)(=O)Nc1ccc(F)c(C(=O)c2c[nH]c3ncc(C#CC4CCN(C(=O)CN5CCC(c6ccc(NC7CCC(=O)NC7=O)cc6F)CC5)CC4)cc23)c1F (stereo not drawn) [Example 124, 5-[2-[1-[2-[4-[4-[(2,6-dioxo-3-piperidyl)amino]-2-fluoro-phenyl]-1-piperidyl]acetyl]-4-piperidyl]ethynyl]-3-[3-[[ethyl(methyl)sulfamoyl]amino]-2,6-difluoro-benzoyl]-1H-pyrrolo[2,3-b]pyridine] | 22.1 nM | 13%
CCN(C)S(=O)(=O)Nc1ccc(F)c(C(=O)c2c[nH]c3ncc(-c4cnc(N5CCC(C(=O)N6CCC(c7ccc(NC8CCC(=O)NC8=O)cc7)CC6)CC5)nc4)cc23)c1F (stereo not drawn) [Example 127, 5-[2-[4-[4-[4-[(2,6-dioxo-3-piperidyl)amino]phenyl]piperidine-1-carbonyl]-1-piperidyl]pyrimidin-5-yl]-3-[3-[[ethyl(methyl)sulfamoyl]amino]-2,6-difluoro-benzoyl]-1H-pyrrolo[2,3-b]pyridine] | 13.2 nM | 7.62%
CCN(C)S(=O)(=O)Nc1ccc(F)c(C(=O)c2c[nH]c3ncc(-c4cnc(N5CCC(C(=O)NC6CCN(c7ccc(NC8CCC(=O)NC8=O)cc7F)CC6)CC5)nc4)cc23)c1F (stereo not drawn) [Example 128, N-[1-[4-[(2,6-dioxo-3-piperidyl)amino]-2-fluoro-phenyl]-4-piperidyl]-1-[5-[3-[3-[[ethyl(methyl)sulfamoyl]amino]-2,6-difluoro-benzoyl]-1H-pyrrolo[2,3-b]pyridin-5-yl]pyrimidin-2-yl]piperidine-4-carboxamide] | 20.9 nM | 14.6%
CCN(C)S(=O)(=O)Nc1ccc(F)c(C(=O)c2c[nH]c3ncc(-c4cnc(N5CC[C@@H](CC(=O)N6CCC(c7ccc(NC8CCC(=O)NC8=O)cc7)CC6)C5)nc4)cc23)c1F (stereo partly drawn) [Example 131, 5-[2-[(3S)-3-[2-[4-[4-[(2,6-dioxo-3-piperidyl)amino]phenyl]-1-piperidyl]-2-oxo-ethyl]pyrrolidin-1-yl]pyrimidin-5-yl]-3-[3-[[ethyl(methyl)sulfamoyl]amino]-2,6-difluoro-benzoyl]-1H-pyrrolo[2,3-b]pyridine] | 27.1 nM | 21.2%

These reach a lower DC50. Values come first.

DC50 | Emax | SMILES
9.73 nM | 12.9% | CCN(C)S(=O)(=O)Nc1ccc(F)c(C(=O)c2c[nH]c3ncc(-c4cnc(N5CC[C@H](C(=O)N6CCC(c7ccc(NC8CCC(=O)NC8=O)cc7)CC6)C5)nc4)cc23)c1F (stereo partly drawn) [Example 130, 5-[2-[(3S)-3-[4-[4-[(2,6-dioxo-3-piperidyl)amino]phenyl]piperidine-1-carbonyl]pyrrolidin-1-yl]pyrimidin-5-yl]-3-[3-[[ethyl(methyl)sulfamoyl]amino]-2,6-difluoro-benzoyl]-1H-pyrrolo[2,3-b]pyridine]
9.66 nM | 15.6% | CCN(C)S(=O)(=O)Nc1cccc(C(=O)c2c[nH]c3ncc(-c4ccc(N5CCN(C(=O)CC6CCN(c7ccc(NC8CCC(=O)NC8=O)cc7F)CC6)CC5)nc4)cc23)c1F (stereo not drawn) [Example 111, 5-[6-[4-[2-[1-[4-[(2,6-dioxo-3-piperidyl)amino]-2-fluoro-phenyl]-4-piperidyl]acetyl]piperazin-1-yl]-3-pyridyl]-3-[3-[[ethyl(methyl)sulfamoyl]amino]-2-fluoro-benzoyl]-1H-pyrrolo[2,3-b]pyridine]
8.71 nM | 10.5% | CCN(C)S(=O)(=O)Nc1cccc(C(=O)c2c[nH]c3ncc(-c4ccc(N5CCN(C(=O)CC6(O)CCN(c7ccc(NC8CCC(=O)NC8=O)cc7F)CC6)CC5)cc4)cc23)c1F (stereo not drawn) [Example 119, 5-[4-[4-[2-[1-[4-[(2,6-dioxo-3-piperidyl)amino]-2-fluoro-phenyl]-4-hydroxy-4-piperidyl]acetyl]piperazin-1-yl]phenyl]-3-[3-[[ethyl(methyl)sulfamoyl]amino]-2-fluoro-benzoyl]-1H-pyrrolo[2,3-b]pyridine]
6.46 nM | 10.8% | CCN(C)S(=O)(=O)Nc1cccc(C(=O)c2c[nH]c3ncc(-c4ccc(N5CCN(C(=O)CC6(O)CCN(c7ccc(NC8CCC(=O)NC8=O)cc7F)CC6)CC5)nc4)cc23)c1F (stereo not drawn) [Example 112, 5-[6-[4-[2-[1-[4-[(2,6-dioxo-3-piperidyl)amino]-2-fluoro-phenyl]-4-hydroxy-4-piperidyl]acetyl]piperazin-1-yl]-3-pyridyl]-3-[3-[[ethyl(methyl)sulfamoyl]amino]-2-fluoro-benzoyl]-1H-pyrrolo[2,3-b]pyridine]
5.32 nM | 13.4% | CCN(C)S(=O)(=O)Nc1cccc(C(=O)c2c[nH]c3ncc(-c4ccc(N5CCN(C(=O)CC6(O)CCN(c7ccc(NC8CCC(=O)NC8=O)cc7)CC6)CC5)cc4)cc23)c1F (stereo not drawn) [Example 116, 5-[4-[4-[2-[1-[4-[(2,6-dioxo-3-piperidyl)amino]phenyl]-4-hydroxy-4-piperidyl]acetyl]piperazin-1-yl]phenyl]-3-[3-[[ethyl(methyl)sulfamoyl]amino]-2-fluoro-benzoyl]-1H-pyrrolo[2,3-b]pyridine]
5.13 nM | 12.2% | CCN(C)S(=O)(=O)Nc1cccc(C(=O)c2c[nH]c3ncc(-c4ccc(N5CCN(C(=O)CC6(O)CCN(c7ncc(NC8CCC(=O)NC8=O)cc7F)CC6)CC5)nc4)cc23)c1F (stereo not drawn) [Example 115, 5-[6-[4-[2-[1-[5-[(2,6-dioxo-3-piperidyl)amino]-3-fluoro-2-pyridyl]-4-hydroxy-4-piperidyl]acetyl]piperazin-1-yl]-3-pyridyl]-3-[3-[[ethyl(methyl)sulfamoyl]amino]-2-fluoro-benzoyl]-1H-pyrrolo[2,3-b]pyridine]
5.11 nM | 13.8% | CCN(C)S(=O)(=O)Nc1ccc(F)c(C(=O)c2c[nH]c3ncc(-c4cnc(N5CC[C@@H](C(=O)N6CCC(c7ccc(NC8CCC(=O)NC8=O)cc7)CC6)C5)nc4)cc23)c1F (stereo partly drawn) [Example 129, 5-[2-[(3R)-3-[4-[4-[(2,6-dioxo-3-piperidyl)amino]phenyl]piperidine-1-carbonyl]pyrrolidin-1-yl]pyrimidin-5-yl]-3-[3-[[ethyl(methyl)sulfamoyl]amino]-2,6-difluoro-benzoyl]-1H-pyrrolo[2,3-b]pyridine]
2.87 nM | 9.99% | CCN(C)S(=O)(=O)Nc1cccc(C(=O)c2c[nH]c3ncc(-c4ccc(N5CCN(C(=O)CC6(O)CCN(c7ncc(NC8CCC(=O)NC8=O)cc7F)CC6)CC5)cc4)cc23)c1F (stereo not drawn) [Example 120, 5-[4-[4-[2-[1-[5-[(2,6-dioxo-3-piperidyl)amino]-3-fluoro-2-pyridyl]-4-hydroxy-4-piperidyl]acetyl]piperazin-1-yl]phenyl]-3-[3-[[ethyl(methyl)sulfamoyl]amino]-2-fluoro-benzoyl]-1H-pyrrolo[2,3-b]pyridine]
2.3 nM | 4.98% | CCN(C)S(=O)(=O)Nc1ccc(F)c(C(=O)c2c[nH]c3ncc(-c4cnc(N5CCN(C(=O)CN6CCC(c7ccc(NC8CCC(=O)NC8=O)cc7)CC6)CC5)nc4)cc23)c1Cl (stereo not drawn) [Example 121, 3-[2-chloro-3-[[ethyl(methyl)sulfamoyl]amino]-6-fluoro-benzoyl]-5-[2-[4-[2-[4-[4-[(2,6-dioxo-3-piperidyl)amino]phenyl]-1-piperidyl]acetyl]piperazin-1-yl]pyrimidin-5-yl]-1H-pyrrolo[2,3-b]pyridine]
2.29 nM | 10.9% | CCN(C)S(=O)(=O)Nc1cccc(C(=O)c2c[nH]c3ncc(-c4ccc(N5CCN(C(=O)CC6(O)CCN(c7ccc(NC8CCC(=O)NC8=O)cc7F)C6)CC5)nc4)cc23)c1F (stereo not drawn) [Example 114, 5-[6-[4-[2-[1-[4-[(2,6-dioxo-3-piperidyl)amino]-2-fluoro-phenyl]-3-hydroxy-pyrrolidin-3-yl]acetyl]piperazin-1-yl]-3-pyridyl]-3-[3-[[ethyl(methyl)sulfamoyl]amino]-2-fluoro-benzoyl]-1H-pyrrolo[2,3-b]pyridine]
